Source: PMC10987949, “Inhibition of HIV-1 release by ADAM metalloproteinase inhibitors” (Frontiers in Microbiology, 2024)

Tests used:
[1] = system: HIV-1; test: Ex vivo HIV-1 release from CD4 T cells of HIV-1 infected individuals; type: cell-based; conditions: 50 μM; CD4 T cells from six HIV-1 infected individuals; day 2 and 4
Procedure: PBMCs were collected from the study subjects in accordance with a clinical protocol approved by the Institutional Review Board of the National Institute of Allergy and Infectious Diseases, National Institutes of Health under protocol #02-I-0202. CD4^+ T cells were isolated from the PBMCs using a human CD4 T cell separation system (StemCell Technologies, Catalog 19052) and were cultured with medium alone or with plate-bound anti-CD3 and soluble anti-CD28 antibody in the absence or presence of 50 μM of indicated compounds for 48 h. The copy number of cell-free viron-associated HIV RNA in the culture supernatants was quantified using the Cobas Ampliprep/Cobas Taqman HIV-1 Test, Version 2.0 (Roche Diagnostics) with droplet digital PCR (ddPCR, BIO-RAD) on day 2 and 4 of stimulation.

[2] = system: CD62L shedding; test: Soluble CD62L ELISA, anti-CD3/PHA stimulated PBMC or CD4 T cells; type: cell-based, human; conditions: ELISA
Procedure: PBMC from de-identified healthy donors were obtained with informed consent from the Department of Transfusion Medicine, National Institutes of Health under Biological reagent Registry RD-14-IX-12 approved by NIH biological safety board. […] IL-2 was added at a final concentration of 20 U/mL. CD3 antibody okt3 was used at ~0.2 μg/mL final concentration. […] Supernatants were collected and assessed using either the CD62L or TNF-α Duo Set ELISA kit according to manufacturer’s instructions (R&D Systems, Inc.). The viability of cells treated with compounds was assessed by acridine orange / propidiom iodide (AO/PI Logosbio catalog F23001) staining using Luna-FL cell counter following the manufacture’s instruction.^2

[3] = target: T1, recombinant HIV-1 protease (Human immunodeficiency virus type 1 group M subtype B, UniProt P04585); test: HIV-1 protease fluorogenic substrate cleavage; type: biochemical; conditions: 100nM saquinavir or nelfinavir; MMP inhibitors up to 10uM
T1 construct: recombinant HIV-1 protease; purchased Sigma-Aldrich SRP2151
Procedure: HIV-1 protease enzymatic activity was assayed in black 96-well plates at room temperature using a Synergy_h1 fluorescent plate reader with 340 nm excitation and 490 nm emission wavelengths (BioTek). Each enzymatic reaction consisted of a mixture of 100 ng of recombinant HIV-1 protease (Sigma-Aldrich catalog SRP2151), 5 μM concentration of a fluorogenic substrate Arg-Glu(EDANS)-[…]DABCYL)-Arg (Sigma-aldrich catalog H6660), and various concentrations of inhibitor compounds in 100 μL of assay buffer (0.15 M sodium chloride, 1.0 mM EDTA, 1.0 mM DTT, 0.1 M sodium acetate, pH 5.0). The fluorescence of the cleavage reaction was continuously read at every 30 s for a total of 40 min.

[4] = system: CD62L shedding; test: Soluble CD62L ELISA, unstimulated PBMC; type: cell-based, human; conditions: Homo sapiens, PBMC; 10 μM compound; non-stimulated cells; ELISA; read-out: Shedding inhibition Non-stim.
Procedure: PBMC from de-identified healthy donors were obtained with informed consent from the Department of Transfusion Medicine, National Institutes of Health under Biological reagent Registry RD-14-IX-12 approved by NIH biological safety board. CD8-depleted PBMCs, either stimulated or non-stimulated with 10 μg/mL phytohaemagglutinin (PHA) or anti-CD3 antibody (with or without conjugated beads), were plated at 2×10^6 cells/ml in 48 well plates in RPMI 1640 + 10%FBS (R10) to a final volume of 1 mL in each well. IL-2 was added at a final concentration of 20 U/mL. CD3 antibody okt3 was used at ~0.2 μg/mL final concentration. […] Supernatants were collected and assessed using either the CD62L or TNF-α Duo Set ELISA kit according to manufacturer's instructions (R&D Systems, Inc.). The viability of cells treated with compounds was assessed by acridine orange / propidiom iodide (AO/PI Logosbio catalog F23001) staining using Luna-FL cell counter following the manufacture's instruction.^2 […] Supplemental Figure 1. CD62L shedding from unstimulated PBMC. A) Soluble CD62L in the supernatant of unstimulated PBMC was measured By ELISA (R&D systems, Inc) after 24 hour treatment in the presence of 10 μM of […]), aminopeptidase (AP) protease inhibitors, respectively, or their untreated controls. Statistics were calculated using unpaired parametric student t-test between individual treatment and DMSO control. […] B) Viability of PBMC treated with 10-500 μM of MMP inhibitors for 24hours. […] Untreated DMSO AEBSF 3,4-Dichloroisocouman Granzyme B Inhibitor II Granzyme B Inhibitor IV Aprotinin […] 3 4 CD62L shedding from unstimulated PBMC Soluble CD62L (ng/ml) Inhibitor Class […] GI254023X 10 GI254023X 100 […] GI254023X 1000 GW280264X 10 GW280264X 100 […] GW280264X 1000 Marimastat 10 Marimastat 100 Marimastat 250 […]

CNC(=O)[C@H](Cc1c[nH]c2ccccc12)NC(=O)[C@@H](CC(=O)NO)CC(C)C [GM6001]
effect on viral release (virion-associated HIV RNA) [1]: inhibited viral release in a portion of the samples | inhibition at 10 µM ([2]; Homo sapiens, 10 μM compound, stimulated cells): 20 to 50% | effect on CD62L shedding / soluble CD62L ([2]; stimulated PBMC or CD4 T cells): suppressed CD62L shedding | effect on HIV protease cleavage of fluorogenic substrate [3]: none of the MMP inhibitors, including BB-94, prinomastat, GM6001 and DMDP, inhibited the activity of HIV protease | inhibition at 10 µM [4]: 20 to 50%
